The first test concerns MCH receptors. The test can be described thus: MCH receptor activity class (method not given).
Details: not given
For `Cc1cc(N(C)C)nc(N[C@H]2CC[C@@H](C(=O)NCc3ccc(F)cc3F)CC2)n1` [Example 2582, cis-N-(2,4-difluorobenzyl)-4-{[4-(dimethylamino)-6-methylpyrimidin-2-yl]amino}cyclohexanecarboxamide], the class is on record as 1.

Staying with this test, now noted: MCH receptor activity class 1-3 (percent of control at 10^-7 M or IC50).
Regarding `COC(=O)c1sccc1NC(=S)N[C@H]1CC[C@@H](Nc2cc(N(C)C)c3ccccc3n2)CC1` [compound 2312], the class is 3 (Class 3 The value of percent of control at 10^−7 M was more than 60% or the value of IC50 was more than 200 nM.).

For the compound `CN(C)c1nc(N[C@H]2CC[C@@H](CNC(=O)Nc3c(F)cc(Br)cc3F)CC2)nc2c1CCCC2` [compound 2478], the class is reported as 3 (Class 3 The value of percent of control at 10^−7 M was more than 60% or the value of IC50 was more than 200 nM.).

For the compound `CN(C)c1nc(N[C@H]2CC[C@@H](CNC(=O)Nc3ccc(Cl)cc3C(F)(F)F)CC2)nc2c1CCCC2` [compound 2479], the class is recorded as 3 (Class 3 The value of percent of control at 10^−7 M was more than 60% or the value of IC50 was more than 200 nM.).

For `CN(C)c1cc(N[C@H]2CC[C@@H](NC(=S)Nc3ccccc3-c3ccccc3)CC2)nc2ccccc12` [compound 2290], the class is 3 (Class 3 The value of percent of control at 10^−7 M was more than 60% or the value of IC50 was more than 200 nM.).

The test is the same for the next values; noted with them: MCH receptor; class by percent of control at 10^-7 M or IC50.
Consider `CN(C)c1cc(N[C@H]2CC[C@@H](CNC(=O)c3ccc(Cl)c([N+](=O)[O-])c3)CC2)nc2ccccc12` [compound 154], for which the class is 3 (Class 3 The value of percent of control at 10^−7 M was more than 60% or the value of IC50 was more than 200 nM.).

Turning to `CN(C)c1cc(N[C@H]2CC[C@@H](NC(=O)c3cccc(I)c3)CC2)nc2ccccc12` [compound 58, N-(cis-4-{[4-(dimethylamino)quinolin-2-yl]amino}cyclohexyl)-3-iodobenzamide], the class was 2 (Class 2: The value of percent of control at 10^−7 M was from 40% to 60% or the value of IC′50 was from 50 nM to 200 nM.).

For the compound `CN(C)c1nc(N[C@H]2CC[C@@H](NC(=O)Nc3ccc4c(c3)CCC4)CC2)nc2c1CCCC2` [compound 1903], the class was 3 (Class 3 The value of percent of control at 10^−7 M was more than 60% or the value of IC50 was more than 200 nM.).

On to `COc1ccc(Br)c(C(=O)N[C@H]2CC[C@@H](Nc3cc(N(C)C)c4ccccc4n3)CC2)c1` [compound 121], for which the class was 3 (Class 3 The value of percent of control at 10^−7 M was more than 60% or the value of IC50 was more than 200 nM.).

Turning to `COC(=O)c1ccc(NC(=O)N[C@H]2CC[C@@H](Nc3nc4c(c(N(C)C)n3)CCCC4)CC2)cc1` [compound 1908], the class is listed as 3 (Class 3 The value of percent of control at 10^−7 M was more than 60% or the value of IC50 was more than 200 nM.).

The same test, now with this note: activity class per percent of control at 10^-7 M or IC50.
On to `CCOc1ccc(C(=O)CC(C(=O)NC[C@H]2CC[C@@H](Nc3nc4c(c(N(C)C)n3)CCCC4)CC2)C2C(=O)N(c3ccccc3)N=C2C)cc1` (relative stereo) [compound 1080], for which the class is 3 (Class 3 The value of percent of control at 10^−7 M was more than 60% or the value of IC50 was more than 200 nM.).

The test is the same for the next values; noted with them: class 1-3 by percent of control at 10^-7 M or IC50.
`Cc1cc(C)c(C(=O)NC[C@H]2CC[C@@H](Nc3nccc(N(C)C)n3)CC2)c(C)c1` [compound 449, N-[(cis-4-{[4-(dimethylamino)pyrimidin-2-yl]amino}cyclohexyl)methyl]-2,4,6-trimethylbenzamide]: the class was 2 (Class 2: The value of percent of control at 10^−7 M was from 40% to 60% or the value of IC′50 was from 50 nM to 200 nM.).

For `CN(C)c1ccnc(N[C@H]2CC[C@@H](CNC(=O)c3c(F)ccc(F)c3Cl)CC2)n1` [compound 454], the class was 3 (Class 3 The value of percent of control at 10^−7 M was more than 60% or the value of IC50 was more than 200 nM.).

Staying with this test, now noted: class by percent of control at 10^-7 M or IC50.
Regarding `COc1cc(OC)c(OC)cc1CNC[C@H]1CC[C@@H](Nc2cc(N(C)C)c3ccccc3n2)CC1` [compound 1175], the class is 2 (Class 2: The value of percent of control at 10^−7 M was from 40% to 60% or the value of IC′50 was from 50 nM to 200 nM.).

Regarding `CN(C)c1ccnc(N[C@H]2CC[C@@H](NC(=O)Nc3ccccc3Br)CC2)n1` [compound 2213], the class is on record as 3 (Class 3 The value of percent of control at 10^−7 M was more than 60% or the value of IC50 was more than 200 nM.).

As to `CCSC(C(=O)N[C@H]1CC[C@@H](Nc2nccc(N(C)C)n2)CC1)(c1ccccc1)c1ccccc1` [compound 874, N-(cis-4-{[4-(dimethylamino)pyrimidin-2-yl]amino}cyclohexyl)-2-(ethylthio)-2,2-diphenylacetamide], the class was 1 (Class 1: The value of percent of control at 10^−7 M was less than 40% or the value of IC50 was less than 50 nM.).

As to `CN(C)c1cc(N[C@H]2CC[C@@H](NC(=O)NCc3ccc(Br)cc3)CC2)nc2ccccc12` [compound 2153], the class is reported as 3 (Class 3 The value of percent of control at 10^−7 M was more than 60% or the value of IC50 was more than 200 nM.).

As to `CCOc1cccc(CN[C@H]2CC[C@@H](Nc3nc4c(c(N(C)C)n3)CCCC4)CC2)c1` [compound 1486], the class was 3 (Class 3 The value of percent of control at 10^−7 M was more than 60% or the value of IC50 was more than 200 nM.).

As for `COc1c(Br)cc(Br)cc1CNC[C@H]1CC[C@@H](Nc2cc(N(C)C)c3ccccc3n2)CC1` [compound 1171], the class is 2 (Class 2: The value of percent of control at 10^−7 M was from 40% to 60% or the value of IC′50 was from 50 nM to 200 nM.).

Turning to `CN(C)c1nc(N[C@H]2CC[C@@H](NC(=O)CCc3ccc(Cl)c(Cl)c3)CC2)nc2c1CCCC2` [compound 974], the class was 3 (Class 3 The value of percent of control at 10^−7 M was more than 60% or the value of IC50 was more than 200 nM.).

For the compound `CN(C)c1ccnc(N[C@H]2CC[C@@H](NC(=O)Nc3ccc(Cl)cc3C(F)(F)F)CC2)n1` [compound 2207], the class is on record as 3 (Class 3 The value of percent of control at 10^−7 M was more than 60% or the value of IC50 was more than 200 nM.).

For the compound `CN(C)c1ccnc(N[C@H]2CC[C@@H](NC(=O)c3cccc(Br)c3)CC2)n1` [compound 239], the class is 1 (Class 1: The value of percent of control at 10^−7 M was less than 40% or the value of IC50 was less than 50 nM.).

Turning to `CC(NC(=O)N[C@H]1CC[C@@H](Nc2nccc(N(C)C)n2)CC1)c1ccc(Br)cc1` (relative stereo) [compound 2248], the class is reported as 3 (Class 3 The value of percent of control at 10^−7 M was more than 60% or the value of IC50 was more than 200 nM.).

As to `CN(C)c1cc(N[C@H]2CC[C@@H](NC(=O)c3cc(Cl)cc(Cl)c3NC(=O)C#Cc3ccccc3)CC2)nc2ccccc12` [compound 719], the class is 3 (Class 3 The value of percent of control at 10^−7 M was more than 60% or the value of IC50 was more than 200 nM.).

The same test, now with this note: class by percent of control at 10^−7 M or IC50.
As for `Cc1ccc(C(=O)N[C@H]2CC[C@@H](Nc3nc(C)c(C)c(N(C)C)n3)CC2)cc1` [compound 2845, N-(cis-4-{[4-(dimethylamino)-5,6-dimethylpyrimidin-2-yl]amino}cyclohexyl)-4-methylbenzamide], the class was 1 (Class 1: The value of percent of control at 10^−7 M was less than 40% or the value of IC50 was less than 50 nM.).

For `Cc1cnc(N[C@H]2CC[C@@H](CNC(=O)c3cccnc3Oc3ccc(Br)cc3)C2)nc1N(C)C` [compound 3012], the class is recorded as 2 (Class 2: The value of percent of control at 10^−7 M was from 40% to 60% or the value of IC′50 was from 50 nM to 200 nM.).

The record behind these values is patent publication US20050197350A1, “Novel quinoline, tetrahydroquinazoline, and pyrimidine derivatives and methods of treatment related to the use thereof” (TAISHO PHARMACEUTICAL CO., LTD., priority 2003, published 2005).
